In assay [1] the target is T1, UDP-galactopyranose mutase (BcUGM) (Botrytis cinerea, UniProt A0A384JG93).
T1 construct: gene BCIN_05g00580
In words: product of purified recombinant BcUGM detected by HILIC and LC-MS/MS. The format is biochemical.

The target of assay [2] is T1, UDP-galactopyranose mutase (BcUGM). The assay can be described thus: enzyme kinetics with purified recombinant BcUGM, varying UDP-Galp, HPLC-UV and LC-MS product detection. The format is biochemical.

The text below walks through data of paper PMC5698552 (mBio, 2017).

T1 sequence (A0A384JG93 entry or part of it): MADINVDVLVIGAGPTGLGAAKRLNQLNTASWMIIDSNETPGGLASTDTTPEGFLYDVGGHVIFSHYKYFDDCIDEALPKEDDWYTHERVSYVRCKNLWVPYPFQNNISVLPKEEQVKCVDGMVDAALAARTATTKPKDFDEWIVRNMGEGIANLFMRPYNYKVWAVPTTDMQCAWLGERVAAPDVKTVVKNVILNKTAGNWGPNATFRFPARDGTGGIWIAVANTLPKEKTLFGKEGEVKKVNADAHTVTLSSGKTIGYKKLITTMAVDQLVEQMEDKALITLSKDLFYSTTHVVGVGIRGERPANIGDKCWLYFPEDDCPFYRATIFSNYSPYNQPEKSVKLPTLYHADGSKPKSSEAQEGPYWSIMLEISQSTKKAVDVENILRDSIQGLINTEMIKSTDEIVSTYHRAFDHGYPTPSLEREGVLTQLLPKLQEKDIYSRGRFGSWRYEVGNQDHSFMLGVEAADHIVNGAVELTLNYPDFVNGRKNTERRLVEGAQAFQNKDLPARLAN

Regarding `O=c1ccn([C@@H]2O[C@H](COP(=O)(O)OP(=O)(O)O[C@H]3O[C@@H]([C@H](O)CO)[C@H](O)[C@H]3O)[C@@H](O)[C@H]2O)c(=O)[nH]1` [UDP-galactofuranose], the “product of purified recombinant BcUGM detected by HILIC and LC-MS/MS” value in assay [1] is “transforming UDP-galactopyranose to UDP-galactofuranose in the presence of NADPH and flavin adenine dinucleotide (FAD)”.
For `C[C@H]1O[C@H](OP(=O)(O)OP(=O)(O)OC[C@H]2O[C@@H](n3ccc(=O)[nH]c3=O)[C@H](O)[C@@H]2O)[C@H](O)[C@@H](O)C1=O` [UDP-KDG], the Ki in assay [2] is 222 µM.
